Measurements published in patent US20130337564A1, “Treatment of Pluripotent Cells” (Janssen Biotech, Inc., priority 2012, published 2013).
Where “and” joins values, the source holds several entries; their conditions need not be identical. Identical values can stand only once.

What was measured:
[1] = test system: cells expressing pluripotency markers derived from human embryonic stem cells; test: MTS viability (toxicity) assay of cells expressing pluripotency markers; type: cell-based; parameters: Raw data (duplicate), first replicate / Average: unit not given here; conditions: for viability at 10 µM: Homo sapiens, Embryonic stem cell; for viability at 10 µM / % Control: viability of cells expressing pluripotency markers, relative to control; for Raw data (duplicate), first replicate / Raw data (duplicate), second replicate: MTS viability assay raw reading; for Raw data (duplicate), first replicate: replicate 1; for Raw data (duplicate), second replicate: replicate 2; for Average: average of duplicate MTS raw readings
Procedure: Derivation and maintenance of cells expressing pluripotency makers was conducted as has been described in Example 2. Cells were grown in DMEM:F12 supplemented with 2% FCS (Invitrogen), 100 ng/ml Activin A, 20 ng/ml Wnt-3a, and 50 ng/ml IGF (R&D Biosystems). Cells were seeded at a density of 10,000 cells/cm^2 on Falcon polystyrene flasks and grown in monolayer culture at 37° C., 5% CO2, low oxygen. After reaching 60-70% confluence, cells were passed by washing the monolayer with PBS and incubating with TrypLE (Invitrogen) for 3-5 minutes to allow detachment and single cell dispersal.
Screening was conducted using test compounds from a proprietary library of small molecules selected for their ability to inhibit GSK-3B enzyme activity. Compounds from this library were made available as 1 mM stocks, in a 96-well plate format in 50 mM HEPES, 30% DMSO. For assay, cells expressing pluripotency markers were washed, counted, and plated in normal culture medium at a seeding density of 20,000 cells per well in 96-well clear-bottom, dark-well plates (Costar). This seeding density was previously determined to yield optimal monolayer formation in overnight culture. On the following day, culture medium was removed, cell monolayers were rinsed three times with PBS, and test compounds were added to the wells in 80 μl aliquots, each diluted into assay medium at a final assay concentration of 10 μM. On day 2 of the assay, medium was removed from each well and replaced with a fresh aliquot of test compounds diluted into assay medium. Assay medium on days 1 and 2 of culture consisted of DMEM:F12 supplemented with 0.5% FCS and 100 ng/ml Activin A. On days 3 and 4 of culture, medium was removed from each well and replaced with DMEM:F12 supplemented with 2% FCS and 100 ng/ml Activin A (no test compound). On day 4 of assay, 15 μl of MTS (Promega) was added to each well and plates were incubated at 37° C. for 1.5 to 4 hours prior to reading optical density at 490 nm on a SpectraMax (Molecular Devices) instrument. Statistical measures consisting of mean, standard deviation, and coefficient of variation were calculated for each duplicate set. Toxicity was calculated for each test well relative to a positive control (wells treated with Activin A and Wnt3a on days 1 and 2 of culture).
A larger proportion of the compounds have minimal or no measurable toxicity in this cell-based assay.
A small panel of select compounds was repeat tested over a narrow dose titration range, again using cells expressing pluripotency markers in a similar assay as described above.

[2] = test system: human embryonic stem cells (H9 or H1 lines); test: Plate reader (MTS) proliferation assay; type: cell-based; conditions: for Average: average of replicate raw data; for activity at 10 µM: Homo sapiens, Embryonic stem cell, 96 h; for activity at 10 µM / % Control Value (proliferation): 10 μM test compound with 100 ng/ml activin A on days 1-2, MTS OD490 on day 4, vs Activin A/Wnt3a positive control, strong and moderate hits; for Raw Data: replicate wells, plate reader proliferation screen of GSK-3B inhibitors
Procedure: Maintenance of human embryonic stem cells (H9 or H1 lines) was conducted as described in Example 1. Colonies of cells were maintained in an undifferentiated, pluripotent state with passage on average every four days. Passage was performed by exposing cell cultures to a solution of collagenase (1 mg/ml; Sigma-Aldrich) for 10 to 30 minutes at 37° C. followed by gentle scraping with a pipette tip to recover cell clusters. Clusters were allowed to sediment and washed to remove residual collagenase. Cell clusters were split at a ratio of 1:3 monolayer area for routine culture or a 1:1 ratio for immediate assay. The human embryonis stem cell lines used for these examples were maintained at passage numbers less than 50 and routinely evaluated for normal karyotypic phenotype as well as absence of mycoplasm contamination.
Cell clusters used in assay were evenly resuspended in normal culture medium and plated into MATRIGEL-coated 96-well Packard VIEWPLATES (PerkinElmer) in volumes of 100 μl/well. MEF conditioned medium supplemented with 8 ng/ml bFGF) was used for initial plating and recovery. Daily feeding was conducted by aspirating spent culture medium from each well and replacing with an equal volume of fresh medium. Plates were maintained at 37° C. in a humidified box, 5% CO2 throughout the duration of assay.
Primary screening assays were initiated by aspirating culture medium from each well followed by three washes in PBS to remove residual growth factors and serum. Test volumes of 80-100 μl per well were added back containing DMEM:F12 base medium (Invitrogen) supplemented with 0.5% FCS (HyClone) and 100 ng/ml activin A (R&D Biosystems) and 10 μM test compound. Positive control wells contained the same medium substituting 10-20 ng/ml Wnt3a (R&D Biosystems). Negative control wells contained base medium with 0.5% FCS without activin A or Wnt3a. Screening compounds were tested in triplicate. Wells were aspirated and fed again with identical solutions on day 2 of the assay. On days 3 and 4, all assay wells were aspirated and converted to DMEM:F 12 supplemented with 2% FCS and 100 ng/ml activin A with the exception of negative control wells which were maintained in DMEM:F12 base medium with 2% FCS.
On day 4 of assay, 15-20 μl of MTS (Promega) was added to each well and plates were incubated at 37° C. for 1.5 to 4 hours. Densitometric readings at OD490 were determined using a Molecular Devices spectrophotometer plate reader. Average readings for replicate sets were calculated along with standard deviation and coefficient of variation. Experimental wells were compared to the Activin A/Wnt3a positive control to calculate a percent control value as a measure of proliferation.
Strong hits are defined as greater than or equal to 120% of control values; moderate hits are defined as falling within the interval of 60-120% of control values. A significant number of compounds induce a proliferative response in this assay.

SMILES	viability at 10 µM [1] [%]	Raw data (duplicate), first replicate [1]	Raw data (duplicate), second replicate [1]	Average [1]	Average [2]	activity at 10 µM [2] [%]	% Control [1]	% Control Value (proliferation) [2]	Raw Data [2]
O=C1NC(=O)C(c2cccc3c2oc2ccccc23)=C1c1cn(CCCO)c2ncccc12 [Compound 33, 3-Dibenzo[b,d]furan-4-yl-4-[1-(3-hydroxypropyl)-1H-pyrrolo[2,3-b]pyridin-3-yl]-1H-pyrrole-2,5-dione]	45.2	0.315	0.542	0.428	0.1889				
O=C1NC(=O)C(c2cccc3c2sc2ccccc23)=C1c1cn(CCCO)c2ncccc12 [Compound 34, 3-Dibenzo[b,d]thien-4-yl-4-[1-(3-hydroxypropyl)-1H-pyrrolo[2,3-b]pyridin-3-yl]-1H-pyrrole-2,5-dione]	83.5	0.750	0.624	0.687	0.1420				
COc1ncc(C2=C(c3cn(CCCO)c4ncccc34)C(=O)NC2=O)c(OC)n1 [Compound 48, 3-[2,4-Bis(methyloxy)pyrimidin-5-yl]-4-[1-(3-hydroxypropyl)-1H-pyrrolo[2,3-b]pyridin-3-yl]-1H-pyrrole-2,5-dione]						148			
COCCCn1cc(C2=C(c3ccccc3OC)C(=O)NC2=O)c2cnccc21 [Compound 55, 3-[2-(Methyloxy)phenyl]-4-{1-[3-(methyloxy)propyl]-1H-pyrrolo[3,2-c]pyridin-3-yl}-1H-pyrrole-2,5-dione]	115	0.952	0.919	0.935	1.1695	152			
COc1ncc(C2=C(c3cn(CCCC#N)c4ncccc34)C(=O)NC2=O)c(OC)n1 [Compound 74, 4-(3-{4-[2,4-Bis(methyloxy)pyrimidin-5-yl]-2,5-dioxo-2,5-dihydro-1H-pyrrol-3-yl}-1H-pyrrolo[2,3-b]pyridin-1-yl)butanenitrile]	78.8					130			
O=C1NC(=O)C(c2nn(CCCO)c3ccccc23)=C1c1cn(C2CCOCC2)c2ccccc12 [Compound 78, 3-[1-(3-Hydroxypropyl)-1H-indazol-3-yl]-4-[1-(tetrahydro-2H-pyran-4-yl)-1H-indol-3-yl]-1H-pyrrole-2,5-dione]	22	0.300	0.223	0.261	1.0282	154			
Cn1cc(C2=C(c3nn(CC(=O)NCCO)c4ccccc34)C(=O)NC2=O)c2cc(Cl)ccc21 [Compound 82, 2-{3-[4-(5-Chloro-1-methyl-1H-indol-3-yl)-2,5-dioxo-2,5-dihydro-1H-pyrrol-3-yl]-1H-indazol-1-yl}-N-(2-hydroxyethyl)acetamide]	95	0.684	0.809	0.746	0.8929	131			
Cn1ccc(C2=C(c3cn(CCCC#N)c4ncccc34)C(=O)NC2=O)n1 [Compound 94, 4-{3-[4-(1-Methyl-1H-pyrazol-3-yl)-2,5-dioxo-2,5-dihydro-1H-pyrrol-3-yl]-1H-pyrrolo[2,3-b]pyridin-1-yl}butanenitrile]	95	0.810	0.683	0.746	0.9819	146			
COc1ncc(C2=C(c3cn(CCc4ccccc4)c4ncccc34)C(=O)NC2=O)c(OC)n1 [Compound 98, 3-[2,4-Bis(methyloxy)pyrimidin-5-yl]-4-[1-(2-phenylethyl)-1H-pyrrolo[2,3-b]pyridin-3-yl]-1H-pyrrole-2,5-dione]	88.1	0.758	0.575	0.667	0.6374	88			
O=C1NC(=O)C2=C1c1cn(c3ccccc13)CCOCCOCCN(Cc1ccccc1)CCn1cc2c2ccccc21 [Compound 105, 14-(Phenylmethyl)-6,7,9,10,13,14,15,16-octahydro-12H,23H-5,26:17,22-di(metheno)dibenzo[k,q]pyrrolo[3,4-n][1,4,7,10,19]dioxatriacyclohenicosine-23,25(24H)-dione]		0.916	0.859	0.887	1.2038		124.0%	183.8%	1.0968 and 1.3108
O=C1NC(=O)C2=C1c1cn(c3ccccc13)CCOCCOCCN(Cc1ccco1)CCn1cc2c2ccccc21 [Compound 127, 14-(Furan-2-ylmethyl)-6,7,9,10,13,14,15,16-octahydro-12H,23H-5,26:17,22-di(metheno)dibenzo[k,q]pyrrolo[3,4-n][1,4,7,10,19]dioxatriazacyclohenicosine-23,25(24H)-dione]		0.745 and 0.744	0.685 and 0.737	0.715 and 0.741	0.9229 and 1.0032		90.2% and 94.1%	136.8% and 124.4%	0.9589 and 0.8868 and 1.0442 and 0.9622
O=C1NC(=O)C2=C1c1cn(c3ccccc13)CCOCCOCCN(Cc1ccncc1)CCn1cc2c2ccccc21 [Compound 139, 14-(Pyridin-4-ylmethyl)-6,7,9,10,13,14,15,16-octahydro-12H,23H-5,26:17,22-di(metheno)dibenzo[k,q]pyrrolo[3,4-n][1,4,7,10,19]dioxatriazacyclohenicosine-23,25(24H)-dione]		0.532	0.682	0.607	0.8650		78.3%	115.5%	0.9184 and 0.8116
O=C1NC(=O)C(c2cn(CCCO)c3ncccc23)=C1c1cc2ccccc2o1 [Compound 241, 3-(1-Benzofuran-2-yl)-4-[1-(3-hydroxypropyl)-1H-pyrrolo[2,3-b]pyridin-3-yl]-1H-pyrrole-2,5-dione]	85.3								
